Holding throughout (format): ADME, organism-based
Data set [1] has as its system Homo sapiens. Put plainly: Evaluation of pharmacokinetic parameters for Alprazolam following single oral administration of Alprazolam, and following co-administration with multiple doses of carbamazepine. Conditions: in vivo, dose 0.8 mg, dosed compound id 23, dosed compound name ALPRAZOLAM, regimen Single dose, tissue Plasma.
Data set [2] in a line: (§1) Pharmacokinetic parameters for Alprazolam evaluated after oral administration of alprazolam to subjects of different ages and health conditions. Set-up: route oral, dose Range 0.5 to 3. Particulars: human, in vivo, dosed compound id 23, dosed compound name ALPRAZOLAM, gender male and female, tissue Plasma.
Data set [3] deals with Homo sapiens. The description is as §1. More on the design: route oral, dose Range 0.5 to 3. Particulars: in vivo, po, dosed compound id 23, dosed compound name ALPRAZOLAM, gender male and female, tissue Plasma.
[4] abbreviates: interact cpd dose 300 mg, inter cpd dos duration 10 days.

Usually Cmax stands for the highest concentration seen after dosing. Broadly, the Tmax is the time at which the peak concentration occurs. As for `Cc1nnc2n1-c1ccc(Cl)cc1C(c1ccccc1)=NC2` [ALPRAZOLAM], the results for the CL in data set [1] (setting [4]) and in data set [1] were 0.128 L/h/kg and 0.054 L/h/kg, respectively. The t1/2 in data set [1] (setting [4]) was 7.7 h; in data set [1], 17.1 h; in data set [3] (dose Range 0.5 to 3 mg), 11.2 h; in data set [3], 16.3 hr [middle of 5 runs]. The Cmax in data set [2] (po) is 0.008 to 0.037 µg/mL. Also, the Tmax in data set [2] (dose Range 0.5 to 3 mg, route oral) was 1 to 2 h.

(Values after ChEMBL document CHEMBL3832032, “DailyMed|setid=2238e083-08f2-0aa8-59b7-16b6d68dbd48 | ALPRAZOLAM - alprazolam tablet|Apotex Corp”.)
